Data from patent US8859541B2, “6-alkynylpyridines” (Boehringer Ingelheim International GmbH, priority 2012, dated 2014).

Target: T1, XIAP BIR3 (Homo sapiens, UniProt P98170)
T1 construct: covering amino acids 241 to 356; XIAP BIR3; made in house; host or cells: E. coli
Test: XIAP BIR3 binding assay (DELFIA), displacement of SMAC peptide
Conditions: GST-fusion BIR3 domain (aa 241 to 356) 10 nM, SMAC peptide 10 nM; activity of the (S)-isomers
Method in brief: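 Each BIR3 domain (10 nM) incubated with biotinylated N-terminal SMAC peptide (10 nM) and compound for 1 h at room temp in Tris/NaCl buffer with BSA, DTT and Triton X-100. Captured on streptavidin plates; bound BIR3 detected by Eu-labelled anti-GST time-resolved fluorescence, giving IC50 values.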

T1 sequence (P98170 241-356): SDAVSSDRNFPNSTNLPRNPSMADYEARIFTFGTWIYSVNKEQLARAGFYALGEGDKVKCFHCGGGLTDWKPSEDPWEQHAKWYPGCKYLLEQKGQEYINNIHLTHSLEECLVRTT

Structure (SMILES) | IC50 [nM]
CNC(C)C(=O)Nc1ccc(-c2nccc3ccccc23)c(C#Cc2ccccc2)n1 (centres unmarked) [Example 179, N-[5-isoquinolin-1-yl-6-(2-phenylethynyl)pyridin-2-yl]-2-(methylamino)propanamide] | 3800
CNC(C)C(=O)Nc1ccc(-c2cscc2-c2ccncc2)c(C#Cc2ccccc2)n1 (centres unmarked) [Example 180, 2-(methylamino)-N-[6-(2-phenyl-ethynyl)-5-(4-pyridin-4-ylthiophen-3-yl)pyridin-2-yl]-propanamide] | 260
CNC(C)C(=O)Nc1ccc(-c2ccc([N+](=O)[O-])nc2)c(C#Cc2ccccc2)n1 (centres unmarked) [Example 181, 2-(methylamino)-N-[5-(6-nitropyridin-3-yl)-6-(2-phenyl-ethynyl)pyridin-2-yl]propanamide] | 222
CNC(C)C(=O)Nc1ccc(-c2ccc(C(N)=O)nc2)c(C#Cc2ccccc2)n1 (centres unmarked) [Example 183, 5-[6-[[2-(methylamino)-propanoyl]amino]-2-(2-phenyl-ethynyl)pyridin-3-yl]pyridine-2-carboxamide] | 146
CNC(C)C(=O)Nc1ccc(-c2cnoc2C)c(C#Cc2ccccc2)n1 (centres unmarked) [Example 188, 2-(methylamino)-N-[5-(5-methyl-1,2-oxazol-4-yl)-6-(2-phenyl-ethynyl)pyridin-2-yl]propanamide] | 128
CNC(C)C(=O)Nc1ccc(-c2cnn(C)c2-c2ccccc2)c(C#Cc2ccccc2)n1 (centres unmarked) [Example 190, 2-(methylamino)-N-[5-(1-methyl-5-phenylpyrazol-4-yl)-6-(2-phenylethynyl)pyridin-2-yl]-propanamide] | 276
CNC(C)C(=O)Nc1ccc(-c2c[nH]nc2C(=O)OC)c(C#Cc2ccccc2)n1 (centres unmarked) [Example 193, methyl 4-[6-[[2-(methylamino)-propanoyl]amino]-2-(2-phenyl-ethynyl)pyridin-3-yl]-1H-pyrazole-3-carboxylate] | 141
CNC(C)C(=O)Nc1ccc(-c2c(C)ncn2Cc2ccccc2)c(C#Cc2ccccc2)n1 (centres unmarked) [Example 196, N-[5-(3-benzyl-5-methylimidazol-4-yl)-6-(2-phenylethynyl)pyridin-2-yl]-2-(methylamino)propan-amide] | 609
CC(N)C(=O)Nc1cc(Cl)cc(C#Cc2ccccc2)n1 (centres unmarked) [Example 197, 2-amino-N-[4-chloro-6-(2-phenylethynyl)pyridin-2-yl]propanamide] | 3180
CNC(C)C(=O)Nc1cc(OC)c(-c2cncnc2)c(C#Cc2ccccc2)n1 (centres unmarked) [Example 199, N-[4-methoxy-6-(2-phenyl-ethynyl)-5-pyrimidin-5-ylpyridin-2-yl]-2-(methyl-amino)propanamide] | 268
Cc1cc(C#Cc2ccccc2)nc(NC(=O)C(C)N)c1 (centres unmarked) [Example 200, 2-amino-N-[4-methyl-6-(2-phenylethynyl)pyridin-2-yl]propanamide] | 1790
CNC(C)C(=O)Nc1cc(C(F)(F)F)c(-c2cncnc2)c(C#Cc2ccccc2)n1 (centres unmarked) [Example 201, 2-(methylamino)-N-[6-(2-phenylethynyl)-5-pyrimidin-5-yl-4-(trifluoromethyl)pyridin-2-yl]propanamide] | 10800
CNC(C)C(=O)Nc1cc(Cl)c(-c2cncnc2)c(C#Cc2ccccc2)n1 (centres unmarked) [Example 202, N-[4-chloro-6-(2-phenylethynyl)-5-pyrimidin-5-ylpyridin-2-yl]-2-(methyl-amino)propanamide] | 483
Cc1ccc(C#Cc2nc(NC(=O)C(C)N)cc3ccccc23)cc1 (centres unmarked) [Example 205, 2-amino-N-[1-[2-(4-methyl-phenyl)ethynyl]isoquinolin-3-yl]propanamide] | 2300
CC(N)C(=O)Nc1cc2ccccc2c(C#Cc2ccc(Cl)cc2)n1 (centres unmarked) [Example 207, 2-amino-N-[1-[2-(4-chlorophenyl)ethynyl]-isoquinolin-3-yl]propan-amide] | 4240
Cc1ccc(C#Cc2cccc(NC(=O)C(C)N)n2)cc1 (centres unmarked) [Example 209, 2-amino-N-[6-[2-(4-methylphenyl)ethynyl]pyridin-2-yl]propanamide] | 1460
CC(N)C(=O)Nc1cccc(C#Cc2ccc(F)cc2F)n1 (centres unmarked) [Example 210, 2-amino-N-[6-[2-(2,4-difluorophenyl)ethynyl]pyridin-2-yl]propanamide] | 2610
CC(N)C(=O)Nc1cccc(C#Cc2ccc(Cl)cc2)n1 (centres unmarked) [Example 211, 2-amino-N-[6-[2-(4-chlorophenyl)ethynyl]pyridin-2-yl]propanamide] | 2010
CC(N)C(=O)Nc1cccc(C#Cc2ccc(F)c(F)c2)n1 (centres unmarked) [Example 212, 2-amino-N-[6-[2-(3,4-difluorophenyl)ethynyl]pyridin-2-yl]propanamide] | 3060
CC(N)C(=O)Nc1cccc(C#Cc2cccc(C(=O)OCC3CCOCC3)c2)n1 (centres unmarked) [Example 214, oxan-4-ylmethyl 3-[2-[6-[[2-aminopropanoyl]-amino]pyridin-2-yl]ethynyl]benzoate] | 7380
CC(N)C(=O)Nc1cccc(C#Cc2ccsc2)n1 (centres unmarked) [Example 216, 2-amino-N-[6-(2-thiophen-3-ylethynyl)pyridin-2-yl]propanamide] | 2140
CC(N)C(=O)Nc1cccc(C#Cc2ccncc2)n1 (centres unmarked) [Example 218, 2-amino-N-[6-(2-pyridin-4-ylethynyl)pyridin-2-yl]propanamide] | 6540

Structure (SMILES) | IC50 [nM]
CC(N)C(=O)Nc1cccc(C#Cc2ccc(F)cc2)n1 (centres unmarked) [Example 219, 2-amino-N-[6-[2-(4-fluorophenyl)ethynyl]pyridin-2-yl]propanamide] | 359
COc1cccc(C#Cc2cccc(NC(=O)C(C)N)n2)c1 (centres unmarked) [Example 220, 2-amino-N-[6-[2-(3-methoxyphenyl)ethynyl]pyridin-2-yl]propanamide] | 2160
Cc1cccc(C#Cc2cccc(NC(=O)C(C)N)n2)c1 (centres unmarked) [Example 221, 2-amino-N-[6-[2-(3-methylphenyl)ethynyl]pyridin-2-yl]propanamide] | 222
CC(N)C(=O)Nc1cccc(C#Cc2ccccc2Cl)n1 (centres unmarked) [Example 222, 2-amino-N-[6-[2-(2-chlorophenyl)ethynyl]pyridin-2-yl]propanamide] | 1420
CC(N)C(=O)Nc1cccc(C#CCc2ccccc2)n1 (centres unmarked) [Example 224, 2-amino-N-[6-(3-phenylprop-1-ynyl)pyridin-2-yl]propanamide] | 3560
CC(N)C(=O)Nc1cccc(C#CC2=CCCCC2)n1 (centres unmarked) [Example 225, 2-amino-N-[6-[2-(cyclohexen-1-yl)ethynyl]pyridin-2-yl]propanamide] | 7040
CC(N)C(=O)Nc1cc2ccccc2c(C#Cc2cncs2)n1 (centres unmarked) [Example 227, 2-amino-N-[1-[2-(1,3-thiazol-5-yl)ethynyl]isoquinolin-3-yl]-propanamide] | 1890
CC(N)C(=O)Nc1cccc(C#Cc2c(F)cccc2F)n1 (centres unmarked) [Example 230, 2-amino-N-[6-[2-(2,6-difluorophenyl)ethynyl]pyridin-2-yl]propanamide] | 2410
CC(N)C(=O)Nc1cccc(C#Cc2cc(Cl)cc(Cl)c2)n1 (centres unmarked) [Example 231, 2-amino-N-[6-[2-(3,5-dichlorophenyl)ethynyl]pyridin-2-yl]propanamide] | 4860
CC(N)C(=O)Nc1cccc(C#Cc2cc(F)cc(F)c2)n1 (centres unmarked) [Example 233, 2-amino-N-[6-[2-(3,5-difluorophenyl)ethynyl]pyridin-2-yl]propanamide] | 2910
Cc1cc(C)cc(C#Cc2cccc(NC(=O)C(C)N)n2)c1 (centres unmarked) [Example 235, 2-amino-N-[6-[2-(3,5-dimethylphenyl)ethynyl]pyridin-2-yl]propanamide] | 2190
CC(N)C(=O)Nc1cccc(C#Cc2c(Cl)cccc2Cl)n1 (centres unmarked) [Example 236, 2-amino-N-[6-[2-(2,6-dichlorophenyl)ethynyl]pyridin-2-yl]propanamide] | 1970
CC(N)C(=O)Nc1cccc(C#Cc2nccs2)n1 (centres unmarked) [Example 237, 2-amino-N-[6-[2-(1,3-thiazol-2-yl)ethynyl]pyridin-2-yl]propanainide] | 5920
CC(N)C(=O)Nc1cccc(C#Cc2cscn2)n1 (centres unmarked) [Example 238, 2-amino-N-[6-[2-(1,3-thiazol-4-yl)ethynyl]pyridin-2-yl]propanamide] | 7190
CC(N)C(=O)Nc1cccc(C#Cc2cncs2)n1 (centres unmarked) [Example 239, 2-amino-N-[6-[2-(1,3-thiazol-5-yl)ethynyl]pyridin-2-yl]propanamide] | 4580
CC(N)C(=O)Nc1cccc(C#Cc2ccco2)n1 (centres unmarked) [Example 241, 2-amino-N-[6-[2-(furan-2-yl)ethynyl]pyridin-2-yl]propanamide] | 3200
CC(N)C(=O)Nc1cccc(C#Cc2ccc3ccccc3c2)n1 (centres unmarked) [Example 242, 2-amino-N-[6-(2-naphthalen-2-ylethynyl)pyridin-2-yl]propanamide] | 4230
CNC(C)C(=O)Nc1ccc(N(C)S(=O)(=O)c2ccccc2)c(C#Cc2ccccc2)n1 (centres unmarked) [Example 243, N-[5-[benzenesulfonyl(methyl)amino]-6-(2-phenylethynyl)pyridin-2-yl]-2-(methylamino)propanamide] | 160
CNC(C)C(=O)Nc1ccc(N(C)C(=O)C2CCOCC2)c(C#Cc2ccccc2)n1 (centres unmarked) [Example 244, N-methyl-N-[6-[2-(methylamino)propanoylamino]-2-(2-phenylethynyl)pyridin-3-yl]oxane-4-carboxamide] | 1470
CNC(C)C(=O)Nc1ccc(NC(=O)C2CCCC2)c(C#Cc2ccccc2)n1 (centres unmarked) [Example 245, N-[6-[[2-(methylamino)-propanoyl]amino]-2-(2-phenylethynyl)pyridin-3-yl]-cyclopentanecarboxamide] | 1290
CNC(C)C(=O)Nc1ccc(NC(=O)C2CCOCC2)c(C#Cc2ccccc2)n1 (centres unmarked) [Example 246, N-[6-[[2-(methylamino)-propanoyl]amino]-2-(2-phenylethynyl)pyridin-3-yl]-oxane-4-carboxamide] | 1520
CNC(C)C(=O)Nc1ccc(N(C)C(=O)c2ccccc2)c(C#Cc2ccccc2)n1 (centres unmarked) [Example 247, N-methyl-N-[6-[[2-(methyl-amino)propanoyl]amino]-2-(2-phenylethynyl)pyridin-3-yl]-benzamide] | 745
